Data: patent publication US20110065706A1, “Therapeutic Agents 812” (AstraZeneca AB, priority 2009, published 2011)

These molecules were tested against T1, human GPR119 (Homo sapiens, UniProt Q8TDV5) (assay: Cyclic AMP (HTRF cAMP) assay for human GPR119, Method A). Conditions: HEK293S, 0.75 h; Method A; HEK 293s cells over-expressing human GPR119; percent effect at top concentration 30 μM relative to maximum (50 μM Oleoylethanolamide) and minimum (1% DMSO) controls.
T1 construct: expressed in transfected cells; host or cells: HEK 293s
T1 sequence (Q8TDV5 1-335): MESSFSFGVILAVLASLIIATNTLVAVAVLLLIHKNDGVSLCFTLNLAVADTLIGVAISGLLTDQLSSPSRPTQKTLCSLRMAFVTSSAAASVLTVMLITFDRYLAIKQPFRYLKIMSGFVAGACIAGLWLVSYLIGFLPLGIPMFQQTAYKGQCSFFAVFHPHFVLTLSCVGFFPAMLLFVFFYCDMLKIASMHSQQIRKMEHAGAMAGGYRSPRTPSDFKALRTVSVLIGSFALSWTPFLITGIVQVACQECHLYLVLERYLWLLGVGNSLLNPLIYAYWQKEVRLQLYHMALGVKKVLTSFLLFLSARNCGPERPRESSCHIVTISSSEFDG
Assay type: cell-based

Row | SMILES | activation at 30 µM
1 | CC(C)c1nc(N2CCN(c3ncc(OCc4ccncc4C#N)cn3)CC2)no1 [Example 85, 4-((2-(4-(5-Isopropyl-1,2,4-oxadiazol-3-yl)piperazin-1-yl)pyrimidin-5-yloxy)methyl)nicotinonitrile] | 167%
2 | CN(C)CCNC(=O)c1ccc(COc2cnc(N3CCN(C(=O)OC(C)(C)C)CC3)nc2)cc1 [Example 48, tert-butyl 4-(5-(4-(2-(dimethylamino)ethylcarba-moyl)benzyloxy)pyrimidin-2-yl)piperazine-1-carboxylate] | 26%
3 | Cc1nc(-c2ccc(COc3cnc(N4CCN(C(=O)OC(C)(C)C)CC4)nc3)cc2)no1 [Example 4, tert-butyl 4-(5-(4-(5-methyl-1,2,4-oxadiazol-3-yl)benzyloxy)pyrimidin-2-yl)piperazine-1-carboxylate] | 69%
4 | C[C@@H]1CN(C(=O)OC2(C)CC2)CCN1c1ncc(OCc2ccc(S(C)(=O)=O)cc2)cn1 [Example 61, (R)-1-methylcyclo-propyl 3-methyl-4-(5-(4-(methylsulfonyl)benzyloxy)pyrimidin-2-yl)piperazine-1-carboxylate] | 91%
5 | C[C@@H]1CN(C(=O)OC2(C)COC2)CCN1c1ncc(OCc2ccc(S(C)(=O)=O)cc2)cn1 [Example 80, (R)-3-methyloxetan-3-yl 3-methyl-4-(5-(4-(methylsulfonyl)benzyloxy)pyrimi-din-2-yl)piperazine-1-carboxylate] | 41%
6 | CC(C)c1nc(N2CCN(c3ncc(OCc4ccc(S(C)(=O)=O)cc4)cn3)CC2)no1 [Example 87, 5-Isopropyl-3-(4-(5-(4-(methylsulfonyl)benzyloxy)pyrimidin-2-yl)piperazin-1-yl)-1,2,4-oxadiazole] | 48%
7 | CC(C)(C)OC(=O)N1C[C@@H]2CC[C@H]1CN2c1ncc(OCc2ccc(S(C)(=O)=O)cc2)cn1 [Example 29, (1S,4S)-tert-butyl 5-(5-(4-(methylsulfonyl)benzyloxy)pyrimidin-2-yl)-2,5-diazabicyclo [2.2.2]octane-2-carboxylate] | 36%
8 | CC(C)(C#N)OC(=O)N1CCN(c2ncc(OCc3ccncc3C#N)cn2)CC1 [Example 72, 2-cyanopropan-2-yl 4-(5-((3-cyanopyridin-4-yl)methoxy)pyrimidin-2-yl)piperazine-1-carboxylate] | 173%
9 | CCS(=O)(=O)c1ccc(COc2cnc(N3CCN(C(=O)OC(C)(C)C)CC3)nc2)cc1 [Example 83, Tert-butyl 4-(5-(4-(ethylsulfonyl)benzyloxy)pyrimidin-2-yl)piperazine-1-carboxylate] | 66%
10 | CN1CCC(CNC(=O)c2ccc(COc3cnc(N4CCN(C(=O)OC(C)(C)C)CC4)nc3)cc2)CC1 [Example 52, tert-butyl 4-(5-(4-((1-methylpiper-idin-4-yl)methylcarba-moyl)benzyl-oxy)pyrimidin-2-yl)piperazine-1-carboxylate] | 20%
11 | C[C@@H]1CN(c2noc(C3(C)COC3)n2)CCN1c1ncc(OCc2ccncc2C#N)cn1 [Example 107, (R)-4-((2-(2-methyl-4-(5-(3-methyloxetan-3-yl)-1,2,4-oxadiazol-3-yl)piperazin-1-yl)pyrimidin-5-yloxy)methyl)nicotinonitrile] | 188%
12 | CC(OC(=O)N1CCN(c2ncc(OCc3ccncc3C#N)cn2)CC1)C(F)(F)F (centres unmarked) [Example 68, 1,1,1-trifluoropropan-2-yl 4-(5-((3-cyanopyridin-4-yl)methoxy)pyrim-idin-2-yl)piperazine-1-carboxylate] | 169%
13 | CC(C)(C)OC(=O)N1CCN(c2ncc(OCc3ccc(-n4cnnn4)cc3)cn2)CC1 [Example 7, Tert-butyl 4-(5-(4-(1H-tetrazol-1-yl)benzyloxy)pyrimidin-2-yl)piperazine-1-carboxylate] | 170%
14 | C[C@@H]1CN(c2noc(C(F)(F)F)n2)CCN1c1ncc(OCc2ccc(S(C)(=O)=O)cc2)cn1 [Example 90, (R)-3-(3-methyl-4-(5-(4-(mcthylsulfonyl)bcnzyloxy)pyrimidin-2-yl)pipcrazin-1-yl)-5-(trifluoromcthyl)-1,2,4-oxadiazole] | 75%
15 | C[C@@H]1CN(C(=O)OC2COC2)CCN1c1ncc(OCc2ccc(S(C)(=O)=O)cc2)cn1 [Example 76, (R)-oxetan-3-yl 3-methyl-4-(5-(4-(methylsulfonyl)benzyloxy)pyrimidin-2-yl)piperazine-1-carboxylate] | 30%
16 | C[C@@H]1CN(C(=O)OC(C)(C)C)CCN1c1ncc(OCc2ccc(S(C)(=O)=O)cc2)cn1 [Example 18, (R)-Tert-butyl 3-methyl-4-(5-(4-(methylsulfonyl)benzyloxy)pyrimidin-2-yl)piperazine-1-carboxylate] | 155%
17 | CC(C)(C)OC(=O)N1CCN(c2ncc(OCc3ccc(S(C)(=O)=O)cn3)cn2)CC1 [Example 31, tert-butyl 4-(5-((5-(methylsulfonyl)pyridin-2-yl)methoxy)pyrimidin-2-yl)piperazine-1-carboxylate] | 86%
18 | CC(C)OC(=O)N1CCN(c2ncc(OCc3ccc(S(C)(=O)=O)cc3)cn2)[C@H](C)C1 [Example 57, (R)-isopropyl 3-methyl-4-(5-(4-(methylsulfonyl)benzyloxy)pyrimidin-2-yl)piperazine-1-carboxylate] | 69%
19 | CC(C)(C)OC(=O)N1CCN(c2ncc(OCc3ccc(-n4cncn4)cc3)cn2)CC1 [Example 2, tert-butyl 4-(5-(4-(1H-1,2,4-triazol-1-yl)benzyl-oxy)pyrimidin-2-yl)piperazine-1-carboxylate] | 131%

Same assay, conditions: Method A; HEK 293s cells over-expressing human GPR119; midpoint of dose response curve; selected examples

Row | SMILES | EC50
20 | CCS(=O)(=O)c1ccc(COc2cnc(N3CCN(C(=O)OC(C)(C)C)CC3)nc2)cc1 [Example 83, Tert-butyl 4-(5-(4-(ethylsulfonyl)benzyloxy)pyrimidin-2-yl)piperazine-1-carboxylate] | 123 nM
21 | C[C@@H]1CN(c2noc(C(F)(F)F)n2)CCN1c1ncc(OCc2ccc(S(C)(=O)=O)cc2)cn1 [Example 90, (R)-3-(3-methyl-4-(5-(4-(mcthylsulfonyl)bcnzyloxy)pyrimidin-2-yl)pipcrazin-1-yl)-5-(trifluoromcthyl)-1,2,4-oxadiazole] | 26 nM

Same assay, conditions: human GPR119 cAMP assay; top concentration 30 μM

Row | SMILES | significant activity at a top concentration of 30 μM
22 | N#Cc1cnccc1COc1cnc(N2CCN(C(=O)OC3CCOC3)CC2)nc1 (centres unmarked) [tetrahydrofuran-3-yl 4-[5-[(3-cyano-4-pyridyl)methoxy]pyrimidin-2-yl]piperazine-1-carboxylate] | did not show significant activity
23 | CS(=O)(=O)c1ccc(COc2cnc(N3CCN(C(=O)OC4CCOC4)CC3)nc2)cc1 (centres unmarked) [tetrahydrofuran-3-yl 4-[5-[(4-methylsulfonylphenyl)methoxy]pyrimidin-2-yl]piperazine-1-carboxylate] | did not show significant activity
24 | N#Cc1cnccc1COc1cnc(N2CCN(C(=O)OC3CCOCC3)CC2)nc1 [tetrahydropyran-4-yl 4-[5-[3-cyano-4-pyridyl)methoxy]pyrimidin-2-yl]piperazine-1-carboxylate] | did not show significant activity
25 | CS(=O)(=O)c1ccc(COc2cnc(N3CCN(C(=O)OC4CCOCC4)CC3)nc2)cc1 [tetrahydropyran-4-yl 4-[5-[(4-methylsulfonylphenyl)methoxy]pyrimidin-2-yl]piperazine-1-carboxylate] | did not show significant activity
26 | CN1CCC(NC(=O)c2ccc(COc3cnc(N4CCN(C(=O)OC(C)(C)C)CC4)nc3)cc2)CC1 [tert-butyl 4-[5-[[4-[(1-methyl-4-piperidyl)carbamoyl]phenyl]methoxy]pyrimidin-2-yl]piperazine-1-carboxylate] | did not show significant activity
